Reference: ChEMBL document CHEMBL1138433, “New indole alkaloids from the North Sea bacterium Vibrio parahaemolyticus Bio249” (J Nat Prod, 2003)
Active and inactive are the calls of the source.

What was measured:
Type in all cases: functional, organism-based
Bacillus subtilis = test: Antibacterial activity against Bacillus subtilis by agar diffusion method
Candida albicans = test: Antifungal activity against Candida albicans by agar diffusion method
Rhizomucor miehei = test: Antifungal activity against Mucor miehei by agar diffusion method
Escherichia coli = test: Antibacterial activity against Escherichia coli by agar diffusion method
Staphylococcus aureus = test: Antibacterial activity against Staphylococcus aureus by agar diffusion method
[1] = system: Streptomyces viridochromogenes; test: Antibacterial activity against Streptomyces viridochromogenes by agar diffusion method

Measured: Activity

CC(=O)C(C)(c1c[nH]c2ccccc12)c1c[nH]c2ccccc12
inactive: Bacillus subtilis | Candida albicans | Rhizomucor miehei | Escherichia coli | Staphylococcus aureus | [1]

c1ccc2c(Cc3c[nH]c4ccccc34)c[nH]c2c1
inactive: Bacillus subtilis | Candida albicans | Rhizomucor miehei | Escherichia coli | Staphylococcus aureus | [1]

c1ccc2c(C(c3c[nH]c4ccccc34)c3c[nH]c4ccccc34)c[nH]c2c1
inactive: Bacillus subtilis | Candida albicans | Rhizomucor miehei | Escherichia coli | Staphylococcus aureus | [1]

CC(CC(c1c[nH]c2ccccc12)c1c[nH]c2ccccc12)c1c[nH]c2ccccc12 (centres undefined)
inactive: Bacillus subtilis | Candida albicans | Rhizomucor miehei | Escherichia coli | Staphylococcus aureus | [1]
